From ChEMBL document CHEMBL1139793, “Synthesis, structure analysis, and antibacterial activity of some novel 10-substituted 2-(4-piperidyl/phenyl)-5,5-dioxo[1,2,4]triazolo[1,5-b][1,2,4]benzothiadiazine derivatives” (2007)
Values after ≈ are worked out from the molar mass of the structure shown.

Legend:
Format in all cases: functional
Vibrio sp. = assay: Antibacterial activity against Vibrio sp. after 24 hrs by disk diffusion method
Escherichia coli = assay: Antibacterial activity against Escherichia coli MTCC 448 after 24 hrs by disk diffusion method
Klebsiella pneumoniae = assay: Antibacterial activity against Klebsiella pneumoniae MTCC 618 after 24 hrs by disk diffusion method
Pseudomonas aeruginosa = assay: Antibacterial activity against Pseudomonas aeruginosa MTCC 424 after 24 hrs by disk diffusion method
[1] = system: Staphylococcus epidermidis; assay: Antibacterial activity against Staphylococcus epidermidis MTCC 435 after 24 hrs by disk diffusion method
Bacillus subtilis = assay: Antibacterial activity against Bacillus subtilis MTCC 441 after 24 hrs by disk diffusion method

## Cc1ccc(S(=O)(=O)Nc2ccc(-c3nc4n(n3)S(=O)(=O)c3ccccc3N4c3ccccc3)cc2)cc1
Vibrio sp.
  MIC: 32 µg/mL (≈ 58.9 µM)
Escherichia coli
  MIC: 16 µg/mL (≈ 29.4 µM)
Klebsiella pneumoniae
  MIC: 32 µg/mL (≈ 58.9 µM)
Pseudomonas aeruginosa
  MIC: 32 µg/mL (≈ 58.9 µM)
[1]
  MIC: 32 µg/mL (≈ 58.9 µM)
Bacillus subtilis
  MIC: 8 µg/mL (≈ 14.7 µM)

## O=S(=O)(Nc1ccc(-c2nc3n(n2)S(=O)(=O)c2ccccc2N3c2ccccc2)cc1)c1ccc(F)cc1
Vibrio sp.
  MIC: 32 µg/mL (≈ 58.4 µM)
Escherichia coli
  MIC: 16 µg/mL (≈ 29.2 µM)
Klebsiella pneumoniae
  MIC: 64 µg/mL (≈ 117 µM)
Pseudomonas aeruginosa
  MIC: 32 µg/mL (≈ 58.4 µM)
[1]
  MIC: 16 µg/mL (≈ 29.2 µM)
Bacillus subtilis
  MIC: 16 µg/mL (≈ 29.2 µM)

## CN1c2ccccc2S(=O)(=O)n2nc(C3CCN(S(=O)(=O)c4ccc(F)cc4)CC3)nc21
Vibrio sp.
  MIC: 32 µg/mL (≈ 67 µM)
Escherichia coli
  MIC: 16 µg/mL (≈ 33.5 µM)
Klebsiella pneumoniae
  MIC: 16 µg/mL (≈ 33.5 µM)
Pseudomonas aeruginosa
  MIC: 32 µg/mL (≈ 67 µM)
[1]
  MIC: 32 µg/mL (≈ 67 µM)
Bacillus subtilis
  MIC: 32 µg/mL (≈ 67 µM)

## O=S(=O)(c1ccc(F)cc1)N1CCC(c2nc3n(n2)S(=O)(=O)c2ccccc2N3c2ccccc2)CC1
Vibrio sp.
  MIC: 16 µg/mL (≈ 29.7 µM)
Escherichia coli
  MIC: 16 µg/mL (≈ 29.7 µM)
Klebsiella pneumoniae
  MIC: 32 µg/mL (≈ 59.3 µM)
Pseudomonas aeruginosa
  MIC: 32 µg/mL (≈ 59.3 µM)
[1]
  MIC: 32 µg/mL (≈ 59.3 µM)
Bacillus subtilis
  MIC: 16 µg/mL (≈ 29.7 µM)

## Cc1ccc(S(=O)(=O)N2CCC(c3nc4n(n3)S(=O)(=O)c3ccccc3N4C)CC2)cc1
Vibrio sp.
  MIC: 32 µg/mL (≈ 67.6 µM)
Escherichia coli
  MIC: 16 µg/mL (≈ 33.8 µM)
Klebsiella pneumoniae
  MIC: 64 µg/mL (≈ 135 µM)
Pseudomonas aeruginosa
  MIC: 64 µg/mL (≈ 135 µM)
[1]
  MIC: 32 µg/mL (≈ 67.6 µM)
Bacillus subtilis
  MIC: 16 µg/mL (≈ 33.8 µM)

## CC(=O)Nc1ccc(S(=O)(=O)N2CCC(c3nc4n(n3)S(=O)(=O)c3ccccc3N4c3ccccc3)CC2)cc1
Vibrio sp.
  MIC: 32 µg/mL (≈ 55.3 µM)
Escherichia coli
  MIC: 16 µg/mL (≈ 27.6 µM)
Klebsiella pneumoniae
  MIC: 32 µg/mL (≈ 55.3 µM)
Pseudomonas aeruginosa
  MIC: 32 µg/mL (≈ 55.3 µM)
[1]
  MIC: 32 µg/mL (≈ 55.3 µM)
Bacillus subtilis
  MIC: 16 µg/mL (≈ 27.6 µM)

## O=S(=O)(Nc1ccc(-c2nc3n(n2)S(=O)(=O)c2ccccc2N3c2ccccc2)cc1)c1ccccc1
Vibrio sp.
  MIC: 32 µg/mL (≈ 60.4 µM)
Escherichia coli
  MIC: 16 µg/mL (≈ 30.2 µM)
Klebsiella pneumoniae
  MIC: 32 µg/mL (≈ 60.4 µM)
Pseudomonas aeruginosa
  MIC: 32 µg/mL (≈ 60.4 µM)
[1]
  MIC: 32 µg/mL (≈ 60.4 µM)
Bacillus subtilis
  MIC: 8 µg/mL (≈ 15.1 µM)

## O=S(=O)(Nc1ccc(-c2nc3n(n2)S(=O)(=O)c2ccccc2N3c2ccccc2)cc1)c1ccc(Cl)cc1Cl
Vibrio sp.
  MIC: 32 µg/mL (≈ 53.5 µM)
Escherichia coli
  MIC: 16 µg/mL (≈ 26.7 µM)
Klebsiella pneumoniae
  MIC: 32 µg/mL (≈ 53.5 µM)
Pseudomonas aeruginosa
  MIC: 16 µg/mL (≈ 26.7 µM)
[1]
  MIC: 32 µg/mL (≈ 53.5 µM)
Bacillus subtilis
  MIC: 16 µg/mL (≈ 26.7 µM)

## CC(=O)Nc1ccc(S(=O)(=O)Nc2ccc(-c3nc4n(n3)S(=O)(=O)c3ccccc3N4C)cc2)cc1
Vibrio sp.
  MIC: 32 µg/mL (≈ 61 µM)
Escherichia coli
  MIC: 16 µg/mL (≈ 30.5 µM)
Klebsiella pneumoniae
  MIC: 32 µg/mL (≈ 61 µM)
Pseudomonas aeruginosa
  MIC: 32 µg/mL (≈ 61 µM)
[1]
  MIC: 32 µg/mL (≈ 61 µM)
Bacillus subtilis
  MIC: 16 µg/mL (≈ 30.5 µM)

## CC(=O)Nc1ccc(S(=O)(=O)N2CCC(c3nc4n(n3)S(=O)(=O)c3ccccc3N4C)CC2)cc1
Vibrio sp.
  MIC: 16 µg/mL (≈ 31 µM)
Escherichia coli
  MIC: 8 µg/mL (≈ 15.5 µM)
Klebsiella pneumoniae
  MIC: 32 µg/mL (≈ 61.9 µM)
Pseudomonas aeruginosa
  MIC: 32 µg/mL (≈ 61.9 µM)
[1]
  MIC: 32 µg/mL (≈ 61.9 µM)
Bacillus subtilis
  MIC: 32 µg/mL (≈ 61.9 µM)

## Nc1ccc(S(=O)(=O)Nc2ncccn2)cc1 [SULFADIAZINE]
Vibrio sp.
  MIC: 16 µg/mL (≈ 63.9 µM)
Escherichia coli
  MIC: 16 µg/mL (≈ 63.9 µM)
Klebsiella pneumoniae
  MIC: > 64 µg/mL
Pseudomonas aeruginosa
  MIC: 32 µg/mL (≈ 128 µM)
[1]
  MIC: 32 µg/mL (≈ 128 µM)
Bacillus subtilis
  MIC: 16 µg/mL (≈ 63.9 µM)

## CC(=O)Nc1ccc(S(=O)(=O)Nc2ccc(-c3nc4n(n3)S(=O)(=O)c3ccccc3N4c3ccccc3)cc2)cc1
Vibrio sp.
  MIC: 32 µg/mL (≈ 54.5 µM)
Escherichia coli
  MIC: 8 µg/mL (≈ 13.6 µM)
Klebsiella pneumoniae
  MIC: 16 µg/mL (≈ 27.3 µM)
Pseudomonas aeruginosa
  MIC: 32 µg/mL (≈ 54.5 µM)
[1]
  MIC: 32 µg/mL (≈ 54.5 µM)
Bacillus subtilis
  MIC: 8 µg/mL (≈ 13.6 µM)

## CN1c2ccccc2S(=O)(=O)n2nc(C3CCN(S(=O)(=O)c4ccccc4)CC3)nc21
Vibrio sp.
  MIC: 32 µg/mL (≈ 69.6 µM)
Escherichia coli
  MIC: 8 µg/mL (≈ 17.4 µM)
Klebsiella pneumoniae
  MIC: 32 µg/mL (≈ 69.6 µM)
Pseudomonas aeruginosa
  MIC: 64 µg/mL (≈ 139 µM)
[1]
  MIC: 32 µg/mL (≈ 69.6 µM)
Bacillus subtilis
  MIC: 16 µg/mL (≈ 34.8 µM)

## CN1c2ccccc2S(=O)(=O)n2nc(C3CCN(S(=O)(=O)c4ccc(Cl)cc4Cl)CC3)nc21
Vibrio sp.
  MIC: 32 µg/mL (≈ 60.6 µM)
Escherichia coli
  MIC: 16 µg/mL (≈ 30.3 µM)
Klebsiella pneumoniae
  MIC: 16 µg/mL (≈ 30.3 µM)
Pseudomonas aeruginosa
  MIC: 64 µg/mL (≈ 121 µM)
[1]
  MIC: 16 µg/mL (≈ 30.3 µM)
Bacillus subtilis
  MIC: 16 µg/mL (≈ 30.3 µM)

## Cc1ccc(S(=O)(=O)N2CCC(c3nc4n(n3)S(=O)(=O)c3ccccc3N4c3ccccc3)CC2)cc1
Vibrio sp.
  MIC: 32 µg/mL (≈ 59.7 µM)
Escherichia coli
  MIC: 16 µg/mL (≈ 29.9 µM)
Klebsiella pneumoniae
  MIC: 16 µg/mL (≈ 29.9 µM)
Pseudomonas aeruginosa
  MIC: 32 µg/mL (≈ 59.7 µM)
[1]
  MIC: 32 µg/mL (≈ 59.7 µM)
Bacillus subtilis
  MIC: 16 µg/mL (≈ 29.9 µM)

## O=S(=O)(c1ccc(Cl)cc1Cl)N1CCC(c2nc3n(n2)S(=O)(=O)c2ccccc2N3c2ccccc2)CC1
Vibrio sp.
  MIC: 16 µg/mL (≈ 27.1 µM)
Escherichia coli
  MIC: 16 µg/mL (≈ 27.1 µM)
Klebsiella pneumoniae
  MIC: 32 µg/mL (≈ 54.2 µM)
Pseudomonas aeruginosa
  MIC: 32 µg/mL (≈ 54.2 µM)
[1]
  MIC: 32 µg/mL (≈ 54.2 µM)
Bacillus subtilis
  MIC: 16 µg/mL (≈ 27.1 µM)

## Nc1ccc(S(N)(=O)=O)cc1 [SULFANILAMIDE]
Vibrio sp.
  MIC: > 512 µg/mL
Escherichia coli
  MIC: > 128 µg/mL
Klebsiella pneumoniae
  MIC: > 64 µg/mL
Pseudomonas aeruginosa
  MIC: > 512 µg/mL
[1]
  MIC: > 512 µg/mL
Bacillus subtilis
  MIC: > 128 µg/mL

## O=S(=O)(c1ccccc1)N1CCC(c2nc3n(n2)S(=O)(=O)c2ccccc2N3c2ccccc2)CC1
Vibrio sp.
  MIC: 32 µg/mL (≈ 61.3 µM)
Escherichia coli
  MIC: 16 µg/mL (≈ 30.7 µM)
Klebsiella pneumoniae
  MIC: 32 µg/mL (≈ 61.3 µM)
Pseudomonas aeruginosa
  MIC: 16 µg/mL (≈ 30.7 µM)
[1]
  MIC: 32 µg/mL (≈ 61.3 µM)
Bacillus subtilis
  MIC: 16 µg/mL (≈ 30.7 µM)
